Data published in US11746100B2 (GLOBAL BLOOD THERAPEUTICS, INC., priority 2020, dated 2023).

Biological target: T1, human ferroportin (Homo sapiens, UniProt Q9NP59)
T1 construct: luciferase reporter (read with the Nano-Glo Luciferase Assay System); expressed in transfected cells; host or cells: CHO cells, stably transfected, expression induced with doxycycline
T1 sequence (Q9NP59 1-571): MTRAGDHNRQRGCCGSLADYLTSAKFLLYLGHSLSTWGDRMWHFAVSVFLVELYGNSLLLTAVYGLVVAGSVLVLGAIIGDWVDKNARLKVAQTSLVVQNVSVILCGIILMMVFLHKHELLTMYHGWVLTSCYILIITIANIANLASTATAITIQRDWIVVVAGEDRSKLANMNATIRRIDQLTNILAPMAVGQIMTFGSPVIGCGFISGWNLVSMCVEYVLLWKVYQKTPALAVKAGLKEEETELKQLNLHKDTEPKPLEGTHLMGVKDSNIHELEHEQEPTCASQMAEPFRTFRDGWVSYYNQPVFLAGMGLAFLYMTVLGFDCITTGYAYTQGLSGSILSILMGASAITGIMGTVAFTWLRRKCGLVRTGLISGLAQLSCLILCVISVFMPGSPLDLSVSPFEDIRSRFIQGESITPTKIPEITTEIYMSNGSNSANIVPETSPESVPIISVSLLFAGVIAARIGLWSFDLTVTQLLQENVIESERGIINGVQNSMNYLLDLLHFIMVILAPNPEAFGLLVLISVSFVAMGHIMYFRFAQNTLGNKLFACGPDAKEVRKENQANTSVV
Experiment: Biological in-vitro ferroportin internalization assay (luciferase reporter)
Format: cell-based
Conditions: average pEC50; stably-transfected CHO cell line expressing human ferroportin tagged to a luciferase reporter; 6 h incubation with test compound
Summary of the method: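 Read-out is Nano-Glo luciferase signal after 6 h compound exposure, with average pEC50 derived. Cells are a stable CHO line carrying luciferase-tagged human ferroportin, pre-loaded 24 h with ferric ammonium citrate and doxycycline-induced for 24 h.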

pEC50 | Compound
7.3 | CN(CC(=O)NC1CCCC1)c1nc(-c2cn(C)cn2)nc2c1CCC2 [Compound 150, N-cyclopentyl-2-{methyl[2-(1-methyl-1H-imidazol-4-yl)-5H,6H,7H-cyclopenta[d]pyrimidin-4-yl]amino}acetamide]
7.7 | Cc1ccnc(-c2nc3c(c(N(C)CC(=O)NC4(C)CCCC4)n2)CCC3)c1 [Compound 105, 2-{methyl[2-(4-methylpyridin-2-yl)-5H,6H,7H-cyclopenta[d]pyrimidin-4-yl]amino}-N-(1-methylcyclopentyl)acetamide]
7.2 | CN(CC(=O)NC1COC1)c1nc(-c2cc(OCCO)ccn2)nc2c1CCC2 [Compound 374, 2-({2-[4-(2-hydroxyethoxy)pyridin-2-yl]-5H,6H,7H-cyclopenta[d]pyrimidin-4-yl}(methyl)amino)-N-(oxetan-3-yl)acetamide]
7.3 | COc1ccnc(-c2nc3c(c(N(C)CC(=O)NC4COC4)n2)CCC3)c1 [Compound 373, 2-{[2-(4-methoxypyridin-2-yl)-5H,6H,7H-cyclopenta[d]pyrimidin-4-yl](methyl)amino}-N-(oxetan-3-yl)acetamide]
7.3 | CN(C)CCOc1ccnc(-c2nc3c(c(N(C)CC(=O)NC4CC4)n2)CCC3)c1 [Compound 500, N-cyclopropyl-2-[(2-{4-[2-(dimethylamino)ethoxy]pyridin-2-yl}-5H,6H,7H-cyclopenta[d]pyrimidin-4-yl)(methyl)amino]acetamide]
6.6 | CN(CC(=O)NC(C)(C)C)c1cc(-c2ncccn2)nc2c1CCC2 [Compound 67, N-tert-butyl-2-{methyl[2-(pyrimidin-2-yl)-5H,6H,7H-cyclopenta[b]pyridin-4-yl]amino}acetamide]
7.8 | COc1ccnc(-c2nc3c(c(N(C)CC(=O)Nc4cccc(F)c4)n2)CCC3)c1 [Compound 138, N-(3-fluorophenyl)-2-{[2-(4-methoxypyridin-2-yl)-5H,6H,7H-cyclopenta[d]pyrimidin-4-yl](methyl)amino}acetamide]
6.3 | CN(CC(=O)NC(C)(C)C)c1nc(-c2cccc(OCCO)n2)nc2c1CCC2 [Compound 39, N-tert-butyl-2-({2-[6-(2-hydroxyethoxy)pyridin-2-yl]-5H,6H,7H-cyclopenta[d]pyrimidin-4-yl}(methyl)amino)acetamide]
7.4 | Cc1ccc(NC(=O)CN(C)c2nc(-c3cc(OC4COC4)ccn3)nc3c2CCC3)cn1 [Compound 324, 2-[methyl({2-[4-(oxetan-3-yloxy)pyridin-2-yl]-5H,6H,7H-cyclopenta[d]pyrimidin-4-yl})amino]-N-(6-methylpyridin-3-yl)acetamide]
7.5 | CN(CC(=O)NC(C)(C)C)c1nc(-c2cn(C)cn2)nc2c1CCC2 [Compound 125, N-tert-butyl-2-{methyl[2-(1-methyl-1H-imidazol-4-yl)-5H,6H,7H-cyclopenta[d]pyrimidin-4-yl]amino}acetamide]
7.3 | COc1ccnc(-c2nc3c(c(N(C)CC(=O)Nc4ccc(=O)n(C)c4)n2)CCC3)c1 [Compound 281, 2-{[2-(4-methoxypyridin-2-yl)-5H,6H,7H-cyclopenta[d]pyrimidin-4-yl](methyl)amino}-N-(1-methyl-6-oxo-1,6-dihydropyridin-3-yl)acetamide]
7.9 | Cc1ccc(NC(=O)CN(C)c2nc(-c3cc(OC4COC4)ccn3)nc3c2CCC3)cc1 [Compound 326, 2-[methyl({2-[4-(oxetan-3-yloxy)pyridin-2-yl]-5H,6H,7H-cyclopenta[d]pyrimidin-4-yl})amino]-N-(4-methylphenyl)acetamide]
6.5 | c1ccc(-c2nc3c(c(N4CCCCCC4)n2)CCC3)nc1 [Compound 92, 1-[2-(pyridin-2-yl)-5H,6H,7H-cyclopenta[d]pyrimidin-4-yl]azepane]
7.7 | CN(CC(=O)N1CCCCC1)c1nc(-c2cc(O[C@H]3CCOC3)ccn2)nc2c1CCC2 [Compound 343, 2-[methyl(2-{4-[(3S)-oxolan-3-yloxy]pyridin-2-yl}-5H,6H,7H-cyclopenta[d]pyrimidin-4-yl)amino]-1-(piperidin-1-yl)ethan-1-one]
